Assay results reported in PMC9413144, “Similar 5F-APINACA Metabolism between CD-1 Mouse and Human Liver Microsomes Involves Different P450 Cytochromes” (Metabolites, 2022).

What was measured:
[1] = system: pooled human liver microsomes (HLM150); experiment: Steady-state kinetics for 5F-APINACA metabolism by pooled human liver microsomes; assay type: in vitro ADME
Method: (§1) The in vitro 5F-APINACA analyses relied on reactions with human liver microsomes 150 (HLM150) as a model for the average adult human liver and CD-1 mouse liver microsomes as the standard for SCB studies. In a 96-half-well microplate, reaction conditions included human or mouse liver microsomes in 100 mM potassium phosphate buffer pH 7.4, 0.1% methanol (co-solvent), and 5F-APINACA concentrations ranging from 0 to 250 µM. The microplates were preincubated for 15 min at 37 °C with shaking at 350 rpm using a BMG Labtech THERMOstar incubator (Ortenberg, Germany). The addition of an NADPH-regenerating system (4 U/mL glucose-6-phosphate dehydrogenase, 12 mM glucose 6-phosphate, 12 mM MgCl2, 4 mM NADP^+) initiated the reaction. Reactions were quenched by adding an equal volume of ice-cold acetonitrile containing an internal standard (2 μM acenocoumarol final). Samples were chilled on ice for 10 min to optimize precipitation of proteins in phosphate buffer. After 3500 rpm centrifugation at 4 °C for 15 min using a Sorvall ST 16R centrifuge (Thermo Scientific; Waltham, MA, USA), the supernatant was transferred to HPLC vials for HPLC analyses. Standards for metabolite quantifications were prepared with human or mouse liver microsomes in 100 mM potassium phosphate buffer pH 7.4, 0.1% methanol (co-solvent), and 5OH-APINACA concentrations ranging from 0 to 15 µM. The microplates were preincubated for 15 min at 37 °C with shaking at 350 rpm. Reactions were initiated upon addition of the NADPH-regenerating system or 100 mM potassium phosphate as a negative control. For kinetic studies, initial control experiments were carried out to determine the lowest protein concentration and optimal reaction time within the linear response range for all observed metabolites reflecting steady-state conditions. Each set of steady-state reactions were performed at least in triplicate and replicated two times at a minimum. The composition of reactions was determined by liquid chromatographic analysis involving detection of analytes via UV/visible absorbance and mass spectroscopy (Section 2.5).
(§2) We employed explicit equations and numerical methods to model kinetic profiles. In the first case, metabolite levels were used to calculate initial reaction rates for plotting against substrate concentration with GraphPad Prism 9.2 from GraphPad Software, Inc. (San Diego, CA, USA). […] For the numerical methods, ordinary differential equations (ODEs) describing single-substrate (ES) and multi-substrate (ESS) binding kinetics were initially used to fit the models to the primary metabolite formation datasets. The AICc was used to determine the most appropriate model for the same dataset. Predicted parameter estimates from the most appropriate model were then used as initial parameter estimates for a variety of enzyme–substrate–sequential metabolism (ESP1P2P3) models. Schemes included fast- and slow-release rates of metabolite P2 from the enzyme site, either after the first binding event, the second binding event, or both events. A final best-fit model was selected based on AICc values, weighted residuals, and parameter estimate errors. For comparison of all multi-substrate-sequential metabolism models, including the final integrated model, all metabolite data were used simultaneously for model fitting. All association rate constants were fixed at 270 μM^−1 min^−1. When any rate constant within the model had to be held constant, a sensitivity analysis was performed over a range of values to ensure the validity of the results. Based on preliminary model fitting attempts, consistent enzyme kinetic schemes were developed for fitting to both human and CD-1 mouse liver microsomal reaction datasets. Mathematica version 12.3 (Wolfram Research, Champaign, IL, USA) was used for model fitting. The ODEs were numerically solved with NDSolve to provide interpolated functions of each enzyme species. […]

[2] = system: CD-1 mouse liver microsomes; experiment: Steady-state kinetics for 5F-APINACA metabolism by CD-1 mouse liver microsomes; assay type: in vitro ADME
Method: as §1, §2

[3] = system: human CYPs in human liver microsomes; experiment: Chemical inhibitor phenotyping of 5F-APINACA reactions, human liver microsomes; assay type: in vitro ADME; details: 25 µM 5F-APINACA; for effect of inhibitor on formation of 5F-APINACA metabolites: 0.1 mg/mL HLM, 1000 µM ABT, 1 µM ketoconazole
Method: (§3) Inhibitor phenotyping experiments were carried out to qualitatively identify probable P450 isozymes catalyzing 5F-APINACA metabolic pathways present in our mouse and human liver microsome studies. Reactions contained 0.1 mg/mL protein (MLM or HLM), 25 µM 5F-APINACA, specific CYP inhibitors, 0.25% methanol, 1% acetonitrile, 1.0 mM NADPH-regenerating system, and 100 mM phosphate buffer, pH 7.4. […] For each experiment, the following were included as final concentrations: 10 µM furafylline for CYP1A2, 2 µM tranylcypromine (TCP) for CYP2A6, 3 µM ticlopidine (TIC) for CYP2B6, 16 µM montelukast (MTK) for CYP2C8, 10 µM sulfaphenazole (SPA) for CYP2C9, 16 µM (+)-N-3-benzylnirvanol (NBZ) for CYP2C19, 2 µM quinidine (QND) for CYP2D6, 30 µM 4-methylpyrazole (4MP) for CYP2E1, 1 µM ketoconazole (KCZ) for CYP3A4, and 1000 µM ABT for all CYPs. Each inhibitor stock solution (except FUR) was prepared in potassium phosphate buffer pH 7.4 with 1% acetonitrile (final) as a co-solvent. After a preincubation period of 15 min with shaking, the reactions were initiated with the addition of a NADPH-regenerating system and shaken. For FUR, the inhibitor was prepared in methanol and a microsomal reaction was carried out at 10 µM for 10 min prior to addition of 5F-APINACA. After 30 min, all reactions were quenched, processed, and analyzed by HPLC as previously described. The resultant values were normalized to reaction rates observed in absence of inhibitors to yield a percent inhibition value.
Sample reactions were analyzed to quantitate metabolites by absorbance. Analytes were separated on a Waters XBridge BEH C18 3.5 μM column (4.6 mm × 100 mm) using an Agilent 1100 series HPLC instrument equipped with a VWD detector (280 nm). The mobile phase consisted of solvent A (10% solvent B, 90% water) and solvent B (0.1% formic acid/acetonitrile). A gradient method started at 80% solvent A for the first minute, then decreased to 70% for the next 6 min. […] Parent drug and metabolite responses were normalized to the internal standard acenocoumarol and quantitated using a standard curve generated with 5OH-APINACA. The absorbance response corresponds to the indazole ring, which remained unmodified in these reactions, so that the relative absorbance response for all analytes were approximately the same, making inference for quantitation purposes possible.
(§4) Various statistical approaches were employed among the experimental studies to identify the most likely models for explaining the data or establish the significance of the findings. For the explicit kinetic models, the best-fit kinetic model and corresponding constants were determined using the extra sum-of-squares F test. […]

[4] = system: mouse Cyps in CD-1 mouse liver microsomes; experiment: Chemical inhibitor phenotyping of 5F-APINACA reactions, CD-1 mouse liver microsomes; assay type: in vitro ADME; details: 25 µM 5F-APINACA
Method: as §3, with “For FUR, the inhibitor was prepared in methanol and a microsomal reaction was carried out at 10 µM for 10 min prior to addition of 5F-APINACA.” left out, “The resultant values were normalized to reaction rates observed in absence of inhibitors to yield a percent inhibition value.” left out
Sample reactions were analyzed to quantitate metabolites by absorbance. […] Parent drug and metabolite responses were normalized to the internal standard acenocoumarol and quantitated using a standard curve generated with 5OH-APINACA. The absorbance response corresponds to the indazole ring, which remained unmodified in these reactions, so that the relative absorbance response for all analytes were approximately the same, making inference for quantitation purposes possible.
as §4

mice = system: mice; design: method as in PMID 30420360, PMID 32413436; details: with 1-aminobenzotriazole (ABT); cited from earlier work
[5] = global fit to differential rate equations, calculated from micro-rate constants, parentheses standard error
[6] = global fit to differential rate equations, parentheses standard error
[7] = global fit to differential rate equations, second substrate binding (ESS), parentheses standard error
[8] = formation of the metabolite from 5F-APINACA, parentheses 95% confidence interval
[9] = Combined adamantyl hydroxylation pathway, parentheses 95% confidence interval

Compound: O=C(NC12CC3CC(CC(C3)C1)C2)c1nn(CCCCCO)c2ccccc12 [5OH-APINACA]
- Vmax ([1]; formation of the metabolite from 5F-APINACA, 0.1 mg/mL protein, parentheses 95% confidence interval): 465 (446–485) pmol min^−1 mg protein^−1
- Km1 [1, 5]: ((k2 + k3 + k4)/k1) 5.69 (0.35) µM
- kcat1/Km1 [1, 6]: 0.193 (0.015) mL min^−1 nmol^−1
- kcat1 ([1]; global fit to differential rate equations, rates normalized to total CYP (0.38 μM), parentheses standard error): k3 1.10 (0.35) min^−1
- Km2 [1, 7]: ((k6 + k7 + k8)/k5) 181 (10) µM
- kcat2 [1, 7]: k7 1.23 (0.1) min^−1
- kcat2/Km2 [1, 7]: 0.0065 (0.0013) mL min^−1 nmol^−1
- Vmax [2, 8]: 690 (650–730) pmol min^−1 mg protein^−1
- h (Hill coefficient) [2, 8]: 1.4 (1.0–1.8)
- Km1 [2, 5]: ((k2 + k3 + k4)/k1) 3.75 (0.21) µM
- kcat1/Km1 [2, 6]: 0.238 (0.017) mL min^−1 nmol^−1
- kcat1 ([2]; global fit to differential rate equations, rates normalized to total CYP (0.67 μM), parentheses standard error): k3 0.89 (0.04) min^−1
- Km2 [2, 7]: ((k6 + k7 + k8)/k5) 122 (6) µM
- kcat2 [2, 7]: k7 1.17 (0.05) min^−1
- kcat2/Km2 [2, 7]: 0.0096 (0.0006) mL min^−1 nmol^−1

Compound: Nn1nnc2ccccc21 [ABT, 1-aminobenzotriazole, reference compound]
- effect of inhibitor on formation of 5F-APINACA metabolites [3]: completely blocked the formation of all metabolites

Compound: CC(=O)N1CCN(c2ccc(OCC3COC(Cn4ccnc4)(c4ccc(Cl)cc4Cl)O3)cc2)CC1 (centres unmarked) [ketoconazole, reference compound]
- effect of inhibitor on formation of 5F-APINACA metabolites [3]: inhibition of these pathways

Compound: N-(1-adamantyl)-1-(5-pentyl)-1H-indazole-3-carboxamide [5F-APINACA]
- contribution of CYPs to metabolism ([4]; CD-1 microsomes): sole role of CYPs
- dominant isozyme carrying out metabolic reactions ([4]; human CYP inhibitors): Cyp3a11
- other dominant contributors to adamantyl hydroxylation, but minor contributors to oxidative defluorination ([4]; implicated by inhibitor for CYP2C19): Cyp2c37, Cyp2c50, and Cyp2c54
- hypothermia in mice on suppression of metabolism by pan-CYP inhibitor ABT (mice): increased hypothermia
- Ki (substrate inhibition) [1, 9]: 300 (150–790) µM
- Km [1, 9]: 3.3 µM
- Vmax [1, 9]: 400 (330–510) pmol min^−1 mg protein^−1
- dominant isozyme for both pathways ([3]; chemical inhibitor phenotyping): CYP3A4
- isozymes with minor contributions to metabolism ([3]; chemical inhibitor phenotyping): CYP2C8, 2C19, and 2D6
- Ki (substrate inhibition) [2, 9]: 220 (74–1300) µM
- Vmax [2, 9]: 465 (330–730) pmol min^−1 mg protein^−1
- Km ([2]; Combined adamantyl hydroxylation pathway, parentheses 95% confidence interval, read-out: Km or Kh): 3.8 µM
